In patent publication US7754686B2, “Stabilized FGF formulations containing reducing agents” (Novartis Vaccines and Diagnostics, Inc., priority 2000, dated 2010):

Columns and labels:
[1] = Storage stability of liquid FGF-2 formulations by RP-HPLC (% main peak); format: physicochemical; conditions: 0-10 mM DTT, FIGS. 1-3
Protocol: Reversed Phase HPLC (RP-HPLC) was performed using a Waters 600S controller and a Waters 717 autosampler. Separations were accomplished on a Zorbax 300SB-CN, 4.6 mm ID×15 cm, 5:, cyano column with sample detection at 214 nm on a Waters 486 UV detector. Samples were run at 1.0 mL/min and injection volumes were 50 μL (˜15 μg of protein per injection). […] Much of FGF-2 instability in pharmaceutical formulations can be attributed to oxidation. The stability of FGF-2 in different formulations can be quantitated by measuring the retention of the main peak using RP-HPLC. This main peak corresponds to the FGF-2 that remains in the reduced form. Using the analytical procedures described herein, the storage stability of FGF-2 under several conditions was followed by monitoring changes in the RP-HPLC main peak as a function of storage time at 4° C., 17° C., and 30° C. Experiments were conducted to determine the appropriate levels of dithiothreitol (DTT) required for maximum stability of FGF-2 formulations. Concentrations of DTT from 0 to 10 mM were examined in formulations between pH 5.5 and pH 6.5. In this example, all formulations were liquids and were produced from the same lot of bulk drug. Formulations were stored at 4° C., 17° C., and 30° C. […] Stability of the formulations was assessed by a number of assays. […]

[2] = Storage stability of lyophilized FGF-2 formulations by RP-HPLC (% main peak); format: physicochemical; conditions: 0.35 and 3.5 mg/ml, 10 mM DTT, pH 6.0, storage at 30° C. for 1 year, FIG. 7
Protocol: Reversed Phase HPLC (RP-HPLC) was performed using a Waters 600S controller and a Waters 717 autosampler. Separations were accomplished on a Zorbax 300SB-CN, 4.6 mm ID×15 cm, 5:, cyano column with sample detection at 214 nm on a Waters 486 UV detector. Samples were run at 1.0 mL/min and injection volumes were 50 μL (˜15 μg of protein per injection).
rhFGF-2 was lyophilized using the following cycle: Vials were placed on pre-cool shelves set at 10° C. The shelf temperature was ramped at 40° C./hour to −50° C. where the vials were frozen for 2 hours. The temperature of the shelves was then ramped at 40° C. per hour to −25° C. and held for 2 hours to crystallize the glycine in the formulation. A vacuum of 50 μm was then initiated, and primary drying was accomplished over 32 hours. After primary drying was complete, the shelf temperature was ramped at 25° C./hour to 40° C. for 8 hours. The temperature was then reduced to 4° C. and the vials were stoppered and capped.
FGF-2 stability was examined in both liquid and lyophilized (freeze-dried) formulations using RP-HPLC. As in the previous study, liquid formulations were stored at 4° C., 17° C., and 30° C.
Lyophilized formulations were stored at 40° C. and 50° C. […]
Lyophilized formulations were stored for 12 months at 4° C., 25° C. and 30° C. Stability was monitored with a number of stability indicating assays. […]

## O[C@H](CS)[C@H](O)CS (racemic) [DTT, dithiothreitol]
[1]
  protection of FGF-2 from oxidation: protects FGF-2 from oxidation in a concentration-dependent manner

## rhFGF-2: recombinant human FGF-2 having the sequence set forth in SEQ ID NO:1
[2]
  degradation (RP-HPLC main peak): little (if any) detectable degradation
